Reference: patent US7982042B2, “Thiozanthene derivatives as delta-opioid modulators” (priority 2003, dated 2011)
Read-outs that look alike come from different tables or passages of the source.

Experiments:
[1] = target: T1, Rat brain mu opioid receptor (Rattus norvegicus, UniProt P33535); assay: Rat brain mu opioid receptor binding assay ([3H]DAMGO)
T1 construct: from tissue; host or cells: forebrain of male Sprague Dawley rats
Procedure: • Procedure: Male, Sprague Dawley (150-250 g, VAF, Charles River, Kingston, N.Y.) are killed by CO2, and their brains removed and placed immediately in ice cold Tris HCl buffer (50 mM, pH 7.4). The forebrains are separated from the remainder of the brain by a coronal transection, beginning dorsally at the colliculi and passing ventrally through the midbrain-pontine junction. After dissection, the forebrains are homogenized in Tris buffer in a Teflon®-glass homogenizer. The homogenate is diluted to a concentration of 1 g of forebrain tissue per 80 mL Tris and centrifuged at 39,000×g for 10 min. The pellet is resuspended in the same volume of Tris buffer containing 5 mM MgCl2 with several brief pulses from a Polytron homogenizer. This particulate preparation is used for the mu-opioid binding assays. […] Kd and Ki values are calculated using GraphPad PRISM data analysis program.

[2] = target: T2, Rat brain delta opioid receptor (Rattus norvegicus, UniProt P33533); assay: Rat brain delta opioid receptor binding; conditions: rDOR Ki
T2 construct: from tissue; host or cells: rat brain

[3] = target: T3, human delta opioid receptor (Homo sapiens, UniProt P41143); assay: [35S]GTPγS binding assay in CHO-hδ cell membranes; format: biochemical; conditions: for inhibition at 10 µM: read-out: inhibition of GTP binding induced with 1 uM DPDPE
T3 construct: purchased Receptor Biology, Inc. (Baltimore, Md.); host or cells: CHO cells expressing the human delta receptor (membranes)
Procedure: CHO-hδ cell membranes are purchased from Receptor Biology, Inc. (Baltimore, Md.). 10 mg/ml of membrane protein is suspended in 10 mM TRIS-HC pH 7.2, 2 mM EDTA, 10% sucrose.
Membranes are maintained at 4-8° C. 1 ml of membranes is added into 15 ml cold binding assay buffer. The assay buffer contained 50 mM HEPES, pH 7.6, 5 mM MgCl2, 100 mM NaCl, 1 mM DTT and 1 mM EDTA. The membrane suspension is homogenized with a Polytron 2 times and centrifuged at 3000 rpm for 10 min. The supernatant is then centrifuged at 18,000 rpm for 20 min. The pellet is saved in a tube and 10 ml assay buffer is added into the tube. The pellet and buffer are mixed with a Polytron.
The pellet membranes (20 μg/ml) are preincubated with SPA (10 mg/ml) at 25° C. for 45 min in the assay buffer. The SPA (5 mg/ml) coupled with membranes (10 μg/ml) is then incubated with 0.5 nM [^35S]GTPgS in the same HEPES buffer containing 50 μM GDP in total volume of 200 μl. Increasing concentrations of receptor agonists are used to stimulate [^35S]GTPgS binding. The basal binding is tested in the absence of agonists and non-specific binding is tested in the presence of 10 μM unlabeled GTP S. The data are analyzed on a Top counter.

[4] = human delta opioid receptor GTPγS functional assay, read-out: hDOR GTPγS EC50
[5] = hDOR GTPγS EC50, human delta opioid receptor GTPγS functional assay

T1 sequence (P33535 whole entry): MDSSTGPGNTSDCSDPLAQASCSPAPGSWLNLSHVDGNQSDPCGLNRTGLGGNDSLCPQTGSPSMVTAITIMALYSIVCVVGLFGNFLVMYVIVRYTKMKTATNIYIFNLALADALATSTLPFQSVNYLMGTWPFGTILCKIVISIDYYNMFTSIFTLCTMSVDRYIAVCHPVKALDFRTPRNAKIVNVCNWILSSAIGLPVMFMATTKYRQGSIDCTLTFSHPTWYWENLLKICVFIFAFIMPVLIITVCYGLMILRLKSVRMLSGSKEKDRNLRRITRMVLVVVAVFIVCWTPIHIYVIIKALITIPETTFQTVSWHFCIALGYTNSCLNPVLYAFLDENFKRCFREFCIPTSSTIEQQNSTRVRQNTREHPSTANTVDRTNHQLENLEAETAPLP
T2 sequence (P33533 whole entry): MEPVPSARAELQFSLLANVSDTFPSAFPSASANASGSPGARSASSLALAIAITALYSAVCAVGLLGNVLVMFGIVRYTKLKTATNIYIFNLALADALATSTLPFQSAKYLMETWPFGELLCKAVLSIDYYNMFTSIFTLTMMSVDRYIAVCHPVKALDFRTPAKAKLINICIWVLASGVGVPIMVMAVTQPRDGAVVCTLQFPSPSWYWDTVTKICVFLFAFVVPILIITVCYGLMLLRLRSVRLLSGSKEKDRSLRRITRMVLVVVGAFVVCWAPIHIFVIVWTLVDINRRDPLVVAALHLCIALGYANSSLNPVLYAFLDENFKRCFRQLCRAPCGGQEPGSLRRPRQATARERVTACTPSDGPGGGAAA
T3 sequence (P41143 whole entry): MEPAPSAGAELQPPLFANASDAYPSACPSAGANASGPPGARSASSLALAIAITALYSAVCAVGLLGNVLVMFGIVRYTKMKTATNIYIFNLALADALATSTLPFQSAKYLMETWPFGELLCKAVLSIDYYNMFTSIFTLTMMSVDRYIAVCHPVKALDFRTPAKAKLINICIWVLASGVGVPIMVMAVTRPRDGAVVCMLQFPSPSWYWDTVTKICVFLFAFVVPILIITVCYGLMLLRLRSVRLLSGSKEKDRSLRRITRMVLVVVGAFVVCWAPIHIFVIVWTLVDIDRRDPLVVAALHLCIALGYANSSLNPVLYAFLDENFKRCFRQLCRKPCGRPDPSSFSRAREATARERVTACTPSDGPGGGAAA

Row | Structure (SMILES) | Ki ([1]; read-out: rMOR Ki) [nM] | Ki [2] [nM] | EC50 [3, 4] [nM] | inhibition at 10 µM [3] [%] | Ki ([1]; rMOR Ki) [nM] | EC50 [3, 5] [nM]
1 | CCN(CC)C(=O)c1ccc2c(c1)OCc1ccccc1C2=C1CCN(C)CC1 [Compound 1, 11-(1-Methyl-piperidin-4-ylidene)-6,11-dihydro-dibenzo[b,e]oxepine-3-carboxylic acid diethylamide] | 6410 | 25.5 | > 10000 | 61 |  | 
2 | CCN(CC)C(=O)c1ccc2c(c1)OCc1ccccc1C2=C1CCNCC1 [Compound 2] |  | 0.91 |  |  | 2630 | 58.6
3 | CCN(CC)C(=O)c1ccc2c(c1)OCc1ccccc1C2=C1CCN(CCc2ccccc2)CC1 [Compound 5, 11-(1-Phenylethylpiperidin-4-ylidene)-6,11-dihydro-dibenzo[b,e]oxepine-3-caroboxylic diethylamide] | 1290 | 25.3 | > 10000 | 19 |  | 
4 | C=CCN1CCC(=C2c3ccccc3COc3cc(C(=O)N(CC)CC)ccc32)CC1 [Compound 6, 11-(1-Allyl-piperidin-4-ylidene)-6,11-dihydro-dibenzo[b,e]oxepine-3-carboxylic acid diethylamide] | 7910 | 4.25 | 128 |  |  | 
5 | CCN(CC)C(=O)c1ccc2c(c1)Oc1ccccc1C2=C1CC2CCC(C1)N2C [Compound 23, 9-(8-Methyl-8-aza-bicyclo[3.2.1]oct-3-ylidene)-9H-xanthene-3-carboxylic acid diethylamide] |  | 48.4 |  |  | 5560 | 245
6 | C=CCN1C2CCC1CC(=C1c3ccccc3Oc3cc(C(=O)N(CC)CC)ccc31)C2 [Compound 38, 9-(8-Allyl-8-aza-bicyclo[3.2.1]oct-3-ylidene)-9H-xanthene-3-carboxylic acid diethylamide] |  | 31.8 |  |  | 5520 | 342
7 | CCN(CC)C(=O)c1ccc2c(c1)Oc1ccccc1C2=C1CC2CCC(C1)N2CCOC [Compound 39, 9-[8-(2-Methoxy-ethyl)-8-aza-bicyclo[3.2.1]oct-3-ylidene]-9H-xanthene-3-carboxylic acid diethylamide] |  | 8.43 |  |  | 1680 | 94.9
8 | CCN(CC)C(=O)c1ccc2c(c1)Oc1ccccc1C2=C1CC2CCC(C1)N2CCSC [Compound 40, 9-[8-(Methylsulfanyl-ethyl)-8-aza-bicyclo[3.2.1]oct-3-ylidene]-9H-xanthene-3-carboxylic acid diethylamide] |  | 12 |  |  | > 10000 | 267
9 | CCN(CC)C(=O)c1ccc2c(c1)Sc1ccccc1C2=C1CC2CCC(C1)N2 [Compound 48, 9-(8-Aza-bicyclo[3.2.1]oct-3-ylidene)-9H-thioxanthene-3-carboxylic acid diethylamide] |  | 0.9 |  |  | > 100 | 18.8
10 | CCN(CC)C(=O)c1ccc2c(c1)Sc1ccccc1C2=C1CC2CCC(C1)N2CC1CC1 [Compound 49] |  | 25 |  |  | > 100 | 252
11 | CCN(CC)C(=O)c1ccc2c(c1)Sc1ccccc1C2=C1CC2CCC(C1)N2CCCSC [Compound 50] |  | 10.2 |  |  | > 100 | 236
12 | CCN(CC)C(=O)c1ccc2c(c1)Sc1ccccc1C2=C1CC2CCC(C1)N2CCO [Compound 51, 9-[8-(2Hydroxy-ethyl)-8-aza-bicyclo[3.2.1]oct-3-ylidene]-9H-thioxanthene-3-carboxylic acid diethylamide] |  | 4.85 |  |  | > 100 | 62.8
